From patent publication US20190367516A1 (Bayer Pharma Aktiengesellschaft, priority 2015, published 2019) come the findings set out here.

Assay [1] deals with T1, human M2 receptor (Homo sapiens, UniProt P08172).
T1 sequence (P08172 1-466): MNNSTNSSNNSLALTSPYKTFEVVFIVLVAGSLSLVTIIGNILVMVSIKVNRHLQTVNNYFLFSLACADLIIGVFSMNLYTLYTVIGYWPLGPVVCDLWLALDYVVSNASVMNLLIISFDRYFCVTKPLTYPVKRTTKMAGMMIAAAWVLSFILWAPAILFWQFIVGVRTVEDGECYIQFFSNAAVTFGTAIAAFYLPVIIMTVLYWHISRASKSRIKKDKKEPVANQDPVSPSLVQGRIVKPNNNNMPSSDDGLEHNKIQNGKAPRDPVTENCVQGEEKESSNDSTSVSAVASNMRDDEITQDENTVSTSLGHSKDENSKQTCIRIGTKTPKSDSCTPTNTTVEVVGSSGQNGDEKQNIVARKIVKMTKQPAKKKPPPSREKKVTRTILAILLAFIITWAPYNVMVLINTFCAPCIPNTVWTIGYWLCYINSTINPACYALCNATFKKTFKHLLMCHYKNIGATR
The settings on record: for Emax: read-out: Efficiency, boosting of the acetylcholine effect at EC20 acetylcholine concentration; for Efficiency: boosting of the acetylcholine effect at EC20 acetylcholine concentration.

The target in assay [2] is T1, human M2 receptor. Type of assay: cell-based. Conditions: α >1 = positive cooperativity.
[3] abbreviates: Receptor activity EC50, M2-GIRK1/4 activation test, acetylcholine at EC20, allosteric potency, in some cases mean values from two or more determinations.
The mark [4] stands for this setting: shift in the acetylcholine dose-response curve (Allosteric EC50 shift, GraphPad PRISM).
[5] abbreviates: Receptor activity EC50, allosteric potency at EC20 acetylcholine, M2-GIRK1/4 reporter cells, in some cases mean of two or more determinations.
The mark [6] stands for this setting: shift of acetylcholine dose-response curve (Allosteric EC50 shift).

pEC50: −log10 of the molar value. Where two headings read alike, the source gives them in different places.

Compound `O=C(NC(c1ccccc1Cl)C(F)(F)F)c1cn(-c2ccccc2F)c2nc(N3CCC(O)C3=O)ccc2c1=O` (racemic) [Example 287, N-[1-(2-Chlorophenyl)-2,2,2-trifluoroethyl]-1-(2-fluorophenyl)-7-[3-hydroxy-2-oxopyrrolidin-1-yl]-4-oxo-1,4-dihydro-1,8-naphthyridine-3-carboxamide] showed a pEC50 on human M2 receptor [1] (setting [3]) of 6.84. In addition, the “Cooperativity (alpha factor)” value at human M2 receptor [2] (setting [4]) amounted to 24.
Taken in the same sequence, the figures for `CN(C)c1ccc2c(=O)c(C(=O)NCc3c(F)cccc3C(F)(F)F)cn(-c3ccc(F)cc3F)c2n1` [Example 60, 1-(2,4-Difluorophenyl)-7-(dimethylamino)-N-[2-fluoro-6-(trifluoromethyl)benzyl]-4-oxo-1,4-dihydro-1,8-naphthyridine-3-carboxamide] were 6.81 and 8.
Taken in the same sequence, the figures for `O=C(NC1(C(F)(F)F)CCCC1)c1cn(-c2c(F)cc(F)cc2F)c2nc(N3C[C@@H](O)[C@H](O)C3)ccc2c1=O` [Example 350, 7-[(3R,4R)-3,4-Dihydroxypyrrolidin-1-yl]-4-oxo-N-[1-(trifluoromethyl)cyclopentyl]-1-(2,4,6-trifluorophenyl)-1,4-dihydro-1,8-naphthyridine-3-carboxamide] were 8.22 and 42.
Taken in the same sequence, the figures for `O=C(NC12CC(C(F)(F)F)(C1)C2)c1cn(-c2c(F)cc(F)cc2F)c2nc(N3C[C@@H](O)[C@H](O)C3)ccc2c1=O` [Example 371, 7-[(3R,4R)-3,4-Dihydroxypyrrolidin-1-yl]-4-oxo-N-[3-(trifluoromethyl)bicyclo[1.1.1]pent-1-yl]-1-(2,4,6-trifluorophenyl)-1,4-dihydro-1,8-naphthyridine-3-carboxamide] were 7.74 and 36.
Compound `CC[C@@H](NC(=O)c1cn(-c2ccc(F)cc2F)c2nc(N3C[C@@H](O)[C@H](O)C3)ccc2c1=O)C(F)(F)F` [Example 646, 1-(2,4-Difluorophenyl)-7-[(3R,4R)-3,4-dihydroxypyrrolidin-1-yl]-4-oxo-N-[(2R)-1,1,1-trifluorobutan-2-yl]-1,4-dihydro-1,8-naphthyridine-3-carboxamide] had a pEC50 at human M2 receptor [1] (setting [5]) of 7.13. The Emax at human M2 receptor [1] (M2-GIRK1/4 reporter cells) worked out at 100%. Besides, the “Cooperativity (alpha factor)” value at human M2 receptor [2] (setting [6]) turned out to be 30.
Taken in the same sequence, the figures for `O=C(Nc1c(Cl)cccc1Cl)c1cn(-c2ccc(F)cc2F)c2nc(N3C[C@@H](O)[C@H](O)C3)ccc2c1=O` [Example 631, N-(2,6-Dichlorophenyl)-1-(2,4-difluorophenyl)-7-[(3R,4R)-3,4-dihydroxypyrrolidin-1-yl]-4-oxo-1,4-dihydro-1,8-naphthyridine-3-carboxamide] were 7.31, 86% and 23.
Taken in the same sequence, the figures for `CCC1CCN(c2ccc3c(=O)c(C(=O)N[C@@H](C4CC4)C(F)(F)F)cn(-c4c(F)cc(F)cc4F)c3n2)C(=O)N1` (mixture of isomers) [Example 446, N-[(1 S)-1-Cyclopropyl-2,2,2-trifluoroethyl]-7-[4-ethyl-2-oxotetrahydropyrimidin-1(2H)-yl]-4-oxo-1-(2,4,6-trifluorophenyl)-1,4-dihydro-1,8-naphthyridine-3-carboxamide] were 7.30, 85% and 21.
Taken in the same sequence, the figures for `CC[C@H](NC(=O)c1cn(-c2c(F)cc(F)cc2Cl)c2nc(N3C[C@@H](O)CC3=O)ccc2c1=O)C(F)(F)F` [Example 398, 1-(2-Chloro-4,6-difluorophenyl)-7-[(4S)-4-hydroxy-2-oxopyrrolidin-1-yl]-4-oxo-N-[(2S)-1,1,1-trifluorobutan-2-yl]-1,4-dihydro-1,8-naphthyridine-3-carboxamide] were 8.00, 100% and 26.
As to `CC[C@@H](NC(=O)c1cn(-c2ccc(F)cc2F)c2nc(N3CC4CNC(=O)C4C3)ccc2c1=O)C(F)(F)F` (single isomer, unassigned) [Example 223], the negative logarithm of the EC50 (pEC50) on human M2 receptor [1] (setting [3]) is 7.08. Further, on human M2 receptor [2] (setting [4]), the “Cooperativity (alpha factor)” value amounted to 30.
`O=C(NC(c1c(F)cccc1F)C(F)(F)F)c1cn(-c2ccc(F)cc2F)c2nc(N3CCC(O)CC3=O)ccc2c1=O` (single isomer, unassigned) [Example 255, 1-(2,4-Difluorophenyl)-N-[1-(2,6-difluorophenyl)-2,2,2-trifluoroethyl]-7-[4-hydroxy-2-oxopiperidin-1-yl]-4-oxo-1,4-dihydro-1,8-naphthyridine-3-carboxamide] showed a negative-log EC50 (pEC50) at human M2 receptor [1] (setting [3]) of 7.08. The “Cooperativity (alpha factor)” value at human M2 receptor [2] (setting [4]) was 31.
Taken in the same sequence, the figures for `O=C(NC12CC3CC(CC(C3)C1)C2)c1cn(-c2ccc(F)cc2F)c2nc(N3CCC3=O)ccc2c1=O` [Example 168] were 7.22 and 13.
Taken in the same sequence, the figures for `O=C(NC(c1ccccc1Cl)C(F)(F)F)c1cn(-c2ccc(F)cc2F)c2nc(N3CC[C@H](F)C3)ccc2c1=O` (stereo partly drawn) [Example 217, N-[1-(2-Chlorophenyl)-2,2,2-trifluoroethyl]-1-(2,4-difluorophenyl)-7-[(3S)-3-fluoropyrrolidin-1-yl]-4-oxo-1,4-dihydro-1,8-naphthyridine-3-carboxamide] were 7.44 and 18.
`CC(C)(CC(F)(F)F)NC(=O)c1cn(-c2c(F)cc(F)cc2F)c2nc(N3CC(O)C4(CC4)C3)ccc2c1=O` (racemic) [Example 571, 7-[7-Hydroxy-5-azaspiro[2.4]hept-5-yl]-4-oxo-N-(4,4,4-trifluoro-2-methylbutan-2-yl)-1-(2,4,6-trifluorophenyl)-1,4-dihydro-1,8-naphthyridine-3-carboxamide]: the Efficiency at human M2 receptor [1] (M2-GIRK1/4 reporter cells) came to 94.0%. The “Cooperativity (alpha factor)” value at human M2 receptor [2] (setting [6]) is recorded as 33.
For `CCC(COC(F)(F)F)NC(=O)c1cn(-c2c(F)cc(F)cc2F)c2nc(N3C[C@@H](O)[C@H](O)C3)ccc2c1=O` (single isomer, unassigned) [Example 578], on human M2 receptor [1] (setting [5]), the negative logarithm of the EC50 (pEC50) was 7.77. Besides, the Efficiency on human M2 receptor [1] (M2-GIRK1/4 reporter cells) is 100.0%. Further, the “Cooperativity (alpha factor)” value at human M2 receptor [2] (setting [6]) is 29.
At human M2 receptor [1] (setting [3]), `O=C(NC(COC(F)(F)F)c1ccccc1)c1cn(-c2ccc(F)cc2F)c2nc(N3C[C@@H](O)CC3=O)ccc2c1=O` (mixture of isomers) [Example 233, 1-(2,4-Difluorophenyl)-7-[(4S)-4-hydroxy-2-oxopyrrolidin-1-yl]-4-oxo-N-[1-phenyl-2-(trifluoromethoxy)ethyl]-1,4-dihydro-1,8-naphthyridine-3-carboxamide] showed a negative logarithm of the EC50 (pEC50) of 7.24. Further, the “Cooperativity (alpha factor)” value at human M2 receptor [2] (setting [4]) worked out at 41.
In turn, `CC(C)C(NC(=O)c1cn(-c2c(F)cc(F)cc2F)c2nc(N3C[C@@H](O)CC3=O)ccc2c1=O)C(C)C` [Example 475, N-(2,4-Dimethylpentan-3-yl)-7-[(4S)-4-hydroxy-2-oxopyrrolidin-1-yl]-4-oxo-1-(2,4,6-trifluorophenyl)-1,4-dihydro-1,8-naphthyridine-3-carboxamide] gave a negative logarithm of the EC50 (pEC50) on human M2 receptor [1] (setting [5]) of 8.70. Besides, the Emax on human M2 receptor [1] (M2-GIRK1/4 reporter cells) was found to be 100%. Besides, on human M2 receptor [2] (setting [6]), the “Cooperativity (alpha factor)” value came to 68.
Consider `CC1CCN(c2ccc3c(=O)c(C(=O)N[C@@H](C)C(F)(F)F)cn(-c4c(F)cc(F)cc4Cl)c3n2)C1=O` (mixture of isomers) [Example 418, 1-(2-Chloro-4,6-difluorophenyl)-7-[3-methyl-2-oxopyrrolidin-1-yl]-4-oxo-N-[(2S)-1,1,1-trifluoropropan-2-yl]-1,4-dihydro-1,8-naphthyridine-3-carboxamide], for which the negative-log EC50 (pEC50) on human M2 receptor [1] (setting [5]) is 7.77. For the same compound, the Emax at human M2 receptor [1] (M2-GIRK1/4 reporter cells) was 89%. Further, the “Cooperativity (alpha factor)” value at human M2 receptor [2] (setting [6]) is 7.
Turning to `CC[C@@H](NC(=O)c1cn(-c2ccc(F)cc2F)c2nc(N3C[C@@H](OC)CC3=O)ccc2c1=O)C(F)(F)F` [Example 193, 1-(2,4-Difluorophenyl)-7-[(4S)-4-methoxy-2-oxopyrrolidin-1-yl]-4-oxo-N-[(2R)-1,1,1-trifluorobutan-2-yl]-1,4-dihydro-1,8-naphthyridine-3-carboxamide], at human M2 receptor [1] (setting [3]), the pEC50 was 7.44. The “Cooperativity (alpha factor)” value on human M2 receptor [2] (setting [4]) was 50.
Taken in the same sequence, the figures for `CC[C@@H](NC(=O)c1cn(-c2ccc(F)cc2F)c2nc(N3CC4CNC(=O)C4C3)ccc2c1=O)C(F)(F)F` (mixture of isomers) [Example 221, 1-(2,4-Difluorophenyl)-4-oxo-7-[4-oxohexahydrpyrrolo[3,4-c]pyrrol-2(1H)-yl]-N-[(2R)-1,1,1-trifluorobutan-2-yl]-1,4-dihydro-1,8-naphthyridine-3-carboxamide] were 6.97 and 24.
Compound `CC(C)C(NC(=O)c1cn(-c2c(F)cc(F)cc2F)c2nc(N3C[C@@H](O)CC3=O)ccc2c1=O)C(F)(F)F` (single isomer, unassigned) [Example 528] gave a pEC50 at human M2 receptor [1] (setting [5]) of 8.22. At human M2 receptor [1] (M2-GIRK1/4 reporter cells), this compound yielded an Efficiency of 100.0%. In addition, the “Cooperativity (alpha factor)” value on human M2 receptor [2] (setting [6]) amounted to 66.

The term pEC50 denotes the EC50 on a negative log10 scale, so that one unit is a factor of ten.
